Entries after “also recorded” stand apart in the source; their conditions may differ.
Key:
human VMAT1 transporter = molecular target: T1, human VMAT1 transporter (Homo sapiens, UniProt P54219); assay: Uptake in cells expressing VMAT1; assay type: cell-based; conditions: test compounds at concentrations up to 10 μM
T1 construct: expressed in transfected cells
T1 sequence (P54219 1-525): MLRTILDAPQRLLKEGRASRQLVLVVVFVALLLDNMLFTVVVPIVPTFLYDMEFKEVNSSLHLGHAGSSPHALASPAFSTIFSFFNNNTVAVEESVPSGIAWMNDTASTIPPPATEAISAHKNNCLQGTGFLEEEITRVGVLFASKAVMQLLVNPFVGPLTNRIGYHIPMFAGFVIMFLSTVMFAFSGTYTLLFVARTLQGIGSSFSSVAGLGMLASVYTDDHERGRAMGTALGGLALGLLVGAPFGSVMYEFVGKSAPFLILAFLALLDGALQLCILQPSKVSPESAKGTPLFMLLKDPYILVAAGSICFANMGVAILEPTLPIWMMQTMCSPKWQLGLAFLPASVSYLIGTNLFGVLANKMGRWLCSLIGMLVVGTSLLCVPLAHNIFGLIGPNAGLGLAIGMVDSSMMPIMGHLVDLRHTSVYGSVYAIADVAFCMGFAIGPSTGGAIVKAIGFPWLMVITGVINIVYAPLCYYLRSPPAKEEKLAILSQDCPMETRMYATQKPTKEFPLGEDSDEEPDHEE

[1] = test system: more than 80 targets including GPCRs, cell-surface monoamine transporters, and ion channels including HERG; assay: Multi-target activity screen (Cerep screen), whole panel; assay type: binding; conditions: receptors
[2] = Plasma concentrations of circulating metabolites of VBZ; assay type: in vivo; conditions: metabolites formed from VBZ
[3] = test system: ptosis (adrenergic activation); assay: Ptosis, in vivo surrogate measure
[4] = test system: prolactin release (D2 dopamine receptor); assay: Serum prolactin, in vivo surrogate measure
rat and human VMAT2 = assay: VMAT2 [3H]-DHTBZ binding, summary statements over rat and human tissues; conditions: rat striatum and human platelet homogenates
Procedure: The affinity of each compound was measured by inhibition of [^3H]-DHTBZ binding to rat forebrain membranes. […] The affinity of each compound was measured by inhibition of [^3H]-DHTBZ binding to either human platelets or rat striatal membranes.

[5] = test system: dopamine, serotonin and adrenergic receptor subtypes; assay: Detailed radioligand binding assays, monoamine receptors; conditions: radioligand binding assays and broad panel screen

| SMILES | inhibition of uptake through VMAT1, in words (human VMAT1 transporter) | affinity for more than 80 binding sites, in words [1] | induction of ptosis, in words [3] | increase in serum prolactin levels, in words [4] | other results |
| --- | --- | --- | --- | --- | --- |
| COc1cc2c(cc1OC)[C@H]1C[C@@H](OC(=O)[C@@H](N)C(C)(C)O)[C@H](CC(C)C)CN1CC2 [NBI-136110] | no significant inhibitory activity; also recorded: no significant effect | little to no affinity |  |  | decline of plasma concentrations (half-lives), in words [2]: half-lives similar to VBZ |
| COc1cc2c(cc1OC)[C@H]1C[C@@H](O)[C@H](CC(C)C)CN1CC2 [R,R,R-DHTBZ, (2R,3R,11bR)-3-isobutyl-9,10-dimethoxy-1,3,4,6,7,11b-hexahydro-2H-pyrido[2,1-a]isoquinolin-2-ol] | no significant inhibitory activity; also recorded: no significant effect | little to no affinity | induced ptosis in an equivalent manner | induced a similar increase in serum prolactin levels as TBZ | VMAT2 inhibition, in words (rat and human VMAT2): most potent inhibitor of VMAT2; decline of plasma concentrations (half-lives), in words [2]: half-lives similar to VBZ |
| COc1cc2c(cc1OC)[C@@H]1C[C@@H](O)[C@@H](CC(C)C)CN1CC2 [R,S,S-DHTBZ, reference compound] |  |  |  |  | interaction with D1 and D2 receptors, in words [5]: interact with D1 and D2 receptors |
| COc1cc2c(cc1OC)[C@@H]1C[C@H](O)[C@@H](CC(C)C)CN1CC2 [S,S,S-DHTBZ, reference compound] |  |  |  |  | interaction with D1 and D2 receptors, in words [5]: interact with D1 and D2 receptors |
| COc1cc2c(cc1OC)C1CC(=O)C(CC(C)C)CN1CC2 (stereo not shown) [TBZ, reference compound] | no significant inhibitory activity; also recorded: no significant effect |  | induced ptosis in an equivalent manner | increase in serum prolactin levels |  |
| COc1cc2c(cc1OC)[C@H]1C[C@@H](OC(=O)[C@@H](N)C(C)C)[C@H](CC(C)C)CN1CC2 [Valbenazine, (S)-2-amino-3-methyl-butyric acid (2R,3R,11bR)-3-isobutyl-9,10-dimethoxy-1,3,4,6,7,11b-hexahydro-2H-pyrido[2,1-a]isoquinolin-2-yl ester] |  | little to no affinity | induced ptosis in an equivalent manner | to a lesser extent | inhibition of uptake through VMAT1, in words (human VMAT1 transporter; listed as VBZ): no significant inhibitory activity; also recorded: no significant effect |
| COC(=O)[C@H]1[C@H]2C[C@@H]3c4[nH]c5cc(OC)ccc5c4CCN3C[C@H]2C[C@@H](OC(=O)c2cc(OC)c(OC)c(OC)c2)[C@@H]1OC [reserpine, reference compound] | substantially inhibited uptake through VMAT1 |  |  |  |  |
